Test results: patent publication US20240360151A1 (SANOFI, priority 2023, published 2024)

Assays:
[1] = tested on: NF-kB pathway (TNF-α secretion by THP-1 cells); assay: TNF-α secretion assay in LPS-stimulated THP-1 cells, Lumit immunoassay; assay type: cell-based, human; settings: Homo sapiens, THP-1, 3 h, monocytic THP-1 cells, LPS 10 ng/mL, relative IC50, 10 concentrations, geometric mean
In short: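 TNF-α release was quantified directly in the cell plate by Lumit immunoassay after a 3-h, 10 ng/mL LPS trigger of compound-treated THP-1 cells (RPMI, 5% FBS). Percent inhibition versus no-compound and unstimulated controls fed a 4-parameter logistic fit over 10 concentrations, giving geometric-mean relative IC50.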

NLRP3 inflammasome = target: T1, NLRP3 inflammasome (Homo sapiens, UniProt Q96P20); assay: IL-1β secretion assay (NLRP3 IC50) in LPS-primed, nigericin-activated THP-1 cells, HTRF; assay type: cell-based; settings: monocytic THP-1 cells; LPS 10 ng/mL 3 h priming, then compound + nigericin 10 μM 2 h; relative IC50, 10 concentrations, geometric mean
T1 construct: endogenous in cells; host or cells: THP-1 monocytic cells
T1 sequence (Q96P20 whole entry): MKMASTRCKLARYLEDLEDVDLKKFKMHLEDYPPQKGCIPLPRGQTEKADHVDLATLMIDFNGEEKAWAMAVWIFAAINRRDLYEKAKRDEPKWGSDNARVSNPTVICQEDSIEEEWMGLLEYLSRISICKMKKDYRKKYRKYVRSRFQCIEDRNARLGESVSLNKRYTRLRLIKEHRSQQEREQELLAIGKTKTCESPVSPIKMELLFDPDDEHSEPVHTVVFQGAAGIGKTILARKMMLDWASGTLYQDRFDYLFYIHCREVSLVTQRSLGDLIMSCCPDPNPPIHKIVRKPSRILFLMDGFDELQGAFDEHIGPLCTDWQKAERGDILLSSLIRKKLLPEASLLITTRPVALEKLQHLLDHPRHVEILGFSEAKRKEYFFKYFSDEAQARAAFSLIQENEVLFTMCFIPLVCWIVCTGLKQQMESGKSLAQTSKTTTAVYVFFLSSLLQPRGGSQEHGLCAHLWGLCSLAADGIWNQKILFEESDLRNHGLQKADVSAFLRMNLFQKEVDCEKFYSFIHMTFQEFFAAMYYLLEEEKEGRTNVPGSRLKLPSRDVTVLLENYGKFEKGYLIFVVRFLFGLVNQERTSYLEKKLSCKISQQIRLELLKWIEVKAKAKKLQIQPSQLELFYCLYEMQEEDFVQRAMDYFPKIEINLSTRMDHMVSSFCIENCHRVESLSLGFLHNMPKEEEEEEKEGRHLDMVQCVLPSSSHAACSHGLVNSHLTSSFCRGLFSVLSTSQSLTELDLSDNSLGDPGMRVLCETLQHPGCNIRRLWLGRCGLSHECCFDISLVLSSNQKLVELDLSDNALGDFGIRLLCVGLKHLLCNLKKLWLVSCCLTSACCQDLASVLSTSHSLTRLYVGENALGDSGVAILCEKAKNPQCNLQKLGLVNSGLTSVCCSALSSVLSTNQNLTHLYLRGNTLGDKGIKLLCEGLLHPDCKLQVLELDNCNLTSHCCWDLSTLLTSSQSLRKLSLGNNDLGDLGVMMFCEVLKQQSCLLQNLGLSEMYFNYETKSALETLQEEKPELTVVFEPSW
In short: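 IL-1β in supernatant read by HTRF after 2 h co-incubation of compound (0.1% DMSO, 10 concentrations, 1:3 series) with nigericin at 10 μM final, following 3 h LPS (10 ng/mL) priming of THP-1 monocytes at 37° C. Inhibition normalised to unactivated and no-compound controls; geometric-mean relative IC50 from 4-parameter logistic model.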

| Compound | IC50 [1] | IC50 (NLRP3 inflammasome) |
| --- | --- | --- |
| CC(=O)NC[C@@H]1CN(c2ccc(-c3c(C)cc(Cl)cc3O)nn2)CCO1 [Example 267, N-[[(2R)-4-[6-(4-chloro-2-hydroxy-6-methyl-phenyl)pyridazin-3-yl]morpholin-2-yl]methyl]acetamide] | > 10 µM | 0.185 µM |
| CN1CC[C@@H]2OCCN(c3cc(C(F)F)c(-c4ccc(C(F)(F)F)cc4O)nn3)[C@@H]2C1 [Example 268, 2-[6-[(4aR,8aS)-6-methyl-3,4a,5,7,8,8a-hexahydro-2H-pyrido[4,3-b][1,4]oxazin-4-yl]-4-(difluoromethyl)pyridazin-3-yl]-5-(trifluoromethyl)phenol] | > 10 µM | 0.263 µM |
| Cc1cc(C)c(-c2ccc(N3CCCc4ccccc43)nn2)c(O)c1 [Example 272, 2-[6-(3,4-dihydro-2H-quinolin-1-yl)pyridazin-3-yl]-3,5-dimethyl-phenol] | 6.58 µM | 2.34 µM |
| Cc1cc(C(F)(F)F)cc(O)c1-c1ccc(N2CCCC(CO)C2=O)nn1 (centres unmarked) [Example 273, 3-(hydroxymethyl)-1-[6-[2-hydroxy-6-methyl-4-(trifluoromethyl)phenyl]pyridazin-3-yl]piperidin-2-one] | > 10 µM | 0.456 µM |
| Cc1cc(C(C)C)cc(O)c1-c1ccc(N2CCO[C@H](CO)C2)nn1 [Example 274, 2-[6-[(2S)-2-(hydroxymethyl)morpholin-4-yl]pyridazin-3-yl]-5-isopropyl-3-methyl-phenol] | > 10 µM | 0.171 µM |
| CC(=O)NC[C@H]1CN(c2ccc(-c3c(C)cc(C(F)(F)F)cc3O)nn2)CCO1 [Example 275, N-[[(2S)-4-[6-[2-hydroxy-6-methyl-4-(trifluoromethyl)phenyl]pyridazin-3-yl]morpholin-2-yl]methyl]acetamide] | > 10 µM | 0.127 µM |
| Cc1cc(C(F)(F)F)cc(O)c1-c1ccc(N2CCO[C@@H](CNC(=O)C(C)C)C2)nn1 [Example 276, N-[[(2S)-4-[6-[2-hydroxy-6-methyl-4-(trifluoromethyl)phenyl]pyridazin-3-yl]morpholin-2-yl]methyl]-2-methylpropanamide] | > 10 µM | 0.515 µM |
| Cc1cc(Cl)cc(O)c1-c1ccc(N2CCO[C@H](CNC(=O)C(C)C)C2)nn1 [Example 279, N-[[(2R)-4-[6-(4-chloro-2-hydroxy-6-methylphenyl)pyridazin-3-yl]morpholin-2-yl]methyl]-2-methylpropanamide] | > 10 µM | 0.277 µM |
| CC(=O)NC[C@H]1CN(c2ccc(-c3c(C)cc(Cl)cc3O)nn2)CCO1 [Example 280, N-[[(2S)-4-[6-(4-chloro-2-hydroxy-6-methylphenyl)pyridazin-3-yl]morpholin-2-yl]methyl]acetamide] | > 10 µM | 0.076 µM |
| Cc1cc(Cl)cc(O)c1-c1ccc(N2CCO[C@@H](CNC(=O)C(C)C)C2)nn1 [Example 285, N-[[(2S)-4-[6-(4-chloro-2-hydroxy-6-methylphenyl)pyridazin-3-yl]morpholin-2-yl]methyl]-2-methylpropanamide] | > 10 µM | 0.065 µM |
| Cc1cc(C)c(-c2cc(C(F)F)c(N3CCO[C@@H]4CCN(C)C[C@@H]43)nn2)c(O)c1 [Example 291, 2-[6-[(4aS,8aR)-6-methyl-3,4a,5,7,8,8a-hexahydro-2H-pyrido[4,3-b][1,4]oxazin-4-yl]-5-(difluoromethyl)pyridazin-3-yl]-3,5-dimethyl-phenol] | > 10 µM | 0.001 µM |
| Cc1ccc(-c2nnc(N3CCO[C@@H]4CCN(C)C[C@@H]43)cc2C(F)F)c(O)c1 [Example 295, 2-[6-[(4aS,8aR)-6-methyl-3,4a,5,7,8,8a-hexahydro-2H-pyrido[4,3-b][1,4]oxazin-4-yl]-4-(difluoromethyl)pyridazin-3-yl]-5-methyl-phenol] | > 10 µM | 0.002 µM |
| Cc1cc(C(F)(F)F)cc(O)c1-c1ccc(N2C[C@@H](CO)O[C@H](C)C2)nn1 [Example 296, 2-[6-[(2S,6R)-2-(hydroxymethyl)-6-methyl-morpholin-4-yl]pyridazin-3-yl]-3-methyl-5-(trifluoromethyl)phenol] | > 10 µM | 0.028 µM |
